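All cell lines were grown in 96-well plates and treated with compound for 48 hours. At the GI50, growth is halved. The concentration for full growth arrest is given as TGI.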
Key:
Test in all cases: NCI-60 cell line screen, 48 h
[1] = tested on: 786-0 renal
[2] = tested on: A498 renal
[3] = tested on: A549 NSCLC
[4] = tested on: ACHN renal
[5] = tested on: BT-549 breast
[6] = tested on: CAKI-1 renal
[7] = tested on: CCRF-CEM leukemia
[8] = tested on: COLO 205 colon
[9] = tested on: DU-145 prostate
[10] = tested on: EKVX NSCLC
[11] = tested on: HCC-2998 colon
[12] = tested on: HCT-116 colon
[13] = tested on: HCT-15 colon
[14] = tested on: HL-60(TB) leukemia
[15] = tested on: HOP-62 NSCLC
[16] = tested on: HOP-92 NSCLC
[17] = tested on: HS 578T breast
[18] = tested on: HT29 colon
[19] = tested on: IGROV1 ovarian
[20] = tested on: K-562 leukemia
[21] = tested on: KM12 colon
[22] = tested on: LOX IMVI melanoma
[23] = tested on: M14 melanoma
[24] = tested on: MALME-3M melanoma
[25] = tested on: MCF7 breast
[26] = tested on: MDA-MB-231 breast
[27] = tested on: MDA-MB-435
[28] = tested on: MOLT-4 leukemia
[29] = tested on: NCI-H226 lung
[30] = tested on: NCI-H23 lung
[31] = tested on: NCI-H460 lung
[32] = tested on: NCI-H522 lung
[33] = tested on: NCI/ADR-RES ovarian
[34] = tested on: OVCAR-3 ovarian
[35] = tested on: OVCAR-4 ovarian
[36] = tested on: OVCAR-5 ovarian
[37] = tested on: OVCAR-8 ovarian
[38] = tested on: PC-3 prostate
[39] = tested on: RPMI-8226 leukemia
[40] = tested on: RXF 393 renal
[41] = tested on: SF-268 CNS
[42] = tested on: SF-295 CNS
[43] = tested on: SF-539 CNS
[44] = tested on: SK-MEL-2 melanoma
[45] = tested on: SK-MEL-28 melanoma
[46] = tested on: SK-MEL-5 melanoma
[47] = tested on: SK-OV-3 ovarian
[48] = tested on: SN12C renal
[49] = tested on: SNB-19 CNS
[50] = tested on: SNB-75 CNS
[51] = tested on: SR leukemia
[52] = tested on: SW-620 colon
[53] = tested on: T-47D breast
[54] = tested on: TK-10 renal
[55] = tested on: U251 CNS
[56] = tested on: UACC-257 melanoma
[57] = tested on: UACC-62 melanoma
[58] = tested on: UO-31 renal

`CC1=C(CCC=NNC(N)=O)C2=C(C)C3(CC3)[C@@](C)(O)C(=O)C2=C1` gave a GI50 [1] of 232 nM, a TGI [1] of 623 nM and a GI50 [2] of 317 nM. For the same compound, the TGI [2] was 902 nM, the GI50 [3] was 281 nM and the TGI [3] was 1350 nM. The GI50 [4] was 250 nM, the TGI [4] was 695 nM and the GI50 [5] was 226 nM. For the same compound, the TGI [5] was 695 nM, the GI50 [6] was 281 nM and the TGI [6] was 2800 nM. For the same compound, the GI50 [7] was 3.93 µM, the TGI [7] was 26.2 µM and the GI50 [8] was 230 nM. It also gave a TGI [8] of 647 nM, a GI50 [9] of 120 nM and a TGI [9] of 5.03 µM. It also gave a GI50 [10] of 1440 nM, a TGI [10] of 6.16 µM and a GI50 [11] of 350 nM. The TGI [11] was 1150 nM, the GI50 [12] was 272 nM and the TGI [12] was 2480 nM. For the same compound, the GI50 [13] was 281 nM, the TGI [13] was 1320 nM and the GI50 [14] was 274 nM. For the same compound, the TGI [14] was 1770 nM, the GI50 [15] was 234 nM and the TGI [15] was 753 nM. It also gave a GI50 [16] of 238 nM, a TGI [16] of 702 nM and a GI50 [17] of 1860 nM. For the same compound, the TGI [17] was 6.28 µM, the GI50 [18] was 351 nM and the TGI [18] was 1900 nM. It also gave a GI50 [19] of 248 nM, a TGI [19] of 1270 nM and a GI50 [20] of 3.43 µM. The TGI [20] was 17.8 µM, the GI50 [21] was 1640 nM and the TGI [21] was 5.38 µM. It also gave a GI50 [22] of 457 nM, a TGI [22] of 2110 nM and a GI50 [23] of 196 nM. The TGI [23] was 449 nM, the GI50 [24] was 316 nM and the TGI [24] was 913 nM. For the same compound, the GI50 [25] was 426 nM, the TGI [25] was 12.1 µM and the GI50 [26] was 412 nM. It also gave a TGI [26] of 2000 nM, a GI50 [27] of 1320 nM and a TGI [27] of 3.25 µM. The GI50 [28] was 2790 nM, the TGI [28] was 20.9 µM and the GI50 [29] was 421 nM. The TGI [29] was 3.81 µM, the GI50 [30] was 174 nM and the TGI [30] was 743 nM. It also gave a GI50 [31] of 159 nM, a TGI [31] of 3.74 µM and a GI50 [32] of 515 nM. It also gave a TGI [32] of 1960 nM, a GI50 [33] of 420 nM and a TGI [33] of 4.58 µM. For the same compound, the GI50 [34] was 415 nM, the TGI [34] was 3.25 µM and the GI50 [35] was 439 nM. For the same compound, the TGI [35] was 1700 nM, the GI50 [36] was 325 nM and the TGI [36] was 1420 nM. The GI50 [37] was 238 nM, the TGI [37] was 926 nM and the GI50 [38] was 528 nM. The TGI [38] was 5.24 µM, the GI50 [39] was 5.58 µM and the TGI [39] was 32.6 µM. The GI50 [40] was 145 nM, the TGI [40] was 306 nM and the GI50 [41] was 318 nM. It also gave a TGI [41] of 4.57 µM, a GI50 [42] of 289 nM and a TGI [42] of 1150 nM. It also gave a GI50 [43] of 225 nM, a TGI [43] of 614 nM and a GI50 [44] of 520 nM. It also gave a TGI [44] of 1030 nM, a GI50 [45] of 700 nM and a TGI [45] of 2150 nM. It also gave a GI50 [46] of 231 nM, a TGI [46] of 617 nM and a GI50 [47] of 246 nM. For the same compound, the TGI [47] was 666 nM, the GI50 [48] was 369 nM and the TGI [48] was 2500 nM. For the same compound, the GI50 [49] was 717 nM, the TGI [49] was 7.86 µM and the GI50 [50] was 253 nM. The TGI [50] was 748 nM, the GI50 [51] was 2580 nM and the TGI [51] was 61.8 µM. It also gave a GI50 [52] of 5.79 µM, a TGI [52] of 19.6 µM and a GI50 [53] of 245 nM. The TGI [53] was 1480 nM, the GI50 [54] was 318 nM and the TGI [54] was 1610 nM. It also gave a GI50 [55] of 440 nM, a TGI [55] of 4.19 µM and a GI50 [56] of 538 nM. The TGI [56] was 2130 nM, the GI50 [57] was 488 nM and the TGI [57] was 1310 nM. The GI50 [58] was 160 nM and the TGI [58] was 373 nM.
